Data on 8 molecules can be found in patent US5021423A, “Mitomycin derivatives and intermediates therefor” (Kyowa Hakko Kogyo Kabushiki Kaisha, priority 1988, dated 1991).

Data set [1] deals with Streptococcus faecium: Enterococcus faecium ATTC 10541. Kind of data set: Anti-bacterial activity, agar dilution method at pH 7.0 (SF). Type of data set: cell-based. The following applies: pH 7, read-out: minimum growth inhibitory concentration, SF. The source says:
(§1) In this table, the microorganisms are abbreviated as follows:
SF: Streptococcus faecium: Enterococcus faecium

The test system of data set [2] is Staphylococcus aureus ATCC 6538P. Kind of data set: Anti-bacterial activity, agar dilution method at pH 7.0 (SA). Type of data set: cell-based. The conditions noted are these: ATCC6538P, read-out: minimum growth inhibitory concentration, SA.
Source text: as §1
SA: Staphylococcus aureus ATCC 6538P

Data set [3] concerns Proteus vulgaris ATCC 6897. Kind of data set: Anti-bacterial activity, agar dilution method at pH 7.0 (PV). The data set is classed as cell-based. The conditions noted are these: ATCC6897, read-out: minimum growth inhibitory concentration, PV.
Source text: as §1
PV: Proteus vulgaris ATCC 6897

The subject of data set [4] is Klebsiella pneumoniae ATCC 10031. Nature of the data set: Anti-bacterial activity, agar dilution method at pH 7.0 (KP). Type of data set: cell-based. The following applies: ATCC10031, read-out: minimum growth inhibitory concentration, KP.
Source text: as §1
KP: Klebsiella pneumoniae ATCC 10031

Another data set relates to HeLa S3 cells. Nature of the data set: Inhibition test against the growth of HeLa S3 cells. The data set is classed as cell-based. The following applies: Homo sapiens, 72 hours, neutral red, read-out: IC50 (growth inhibition by 50%). The procedure:
Inhibition test against the growth of HeLa S3 cells
Each 0.1 ml of MEM medium containing 10% foetal calf serum and 2 mM glutamine, which contained 3×10^4 HeLa S3 cells per ml, was put into each well of a 96 well microtitre plate. Without any pre-treatment, the cells were cultured overnight at a temperature of 37° C. in a CO2 incubator.
On each occasion, 0.05 ml of a test sample which had been suitably diluted was added to the well. After treating with the test compound for 72 hours, the supernatant was removed. After washing once with a PBS (-), a fresh medium (0.1 ml) was added to each well, followed by incubating at a temperature of 37° C. for 2 hours in the incubator.
After removal of the supernatant, 0.1 ml of a medium containing neutral red (0.02%) was added to each well. The cells were dyed by incubating at a temperature of 37° C. for one hour in the incubator. After removal of the supernatant, followed by washing once with a physiological solution of sodium chloride, the dyestuff was removed from each sample by extraction using a mixture of 0.001N hydrochloric acid and 30% ethanol. A microplate reader was used to measure the absorption at 550 nm. By comparing the absorption of untreated cells with the absorption of the cells treated with the test compound having a pre-determined concentration, a concentration of the test compound capable of inhibiting the growth of the cells by 50% was calculated and designated as IC50.

The next data set concerns Sarcoma 180 solid tumour. Nature of the data set: Effect against Sarcoma 180 solid tumour. The data set is classed as in vivo, mice of ddy strain. The following applies: Mus musculus, Sarcoma-180, iv, 168 h; male ddy mice, tail vein injection 24 hours after implantation; tumour volume 7 days after implantation; read-out: ED50 (dose reducing the volume of Sarcoma 180 solid tumours by 50%). The procedure:
(1) Effect aginast Sarcoma 180 solid tumour:
5×10^6 cells of Sarcoma 180 solid tumour cells were abdominally implanted into male mice of ddy strain. 7 days after this, ascites cells were sampled. The ascites cells were washed once with a sterilized physiological solution of sodium chloride and were used to prepare a cell suspension containing 5×10^7 cells per ml. 0.1 ml of the cell suspension was subcutaneously implanted into the right armpit of a male mouse (ddy strain; body weight 20±2 g). 24 hours after the implantation of the tumour cells, the test compound dissolved in a physiological solution of sodium chloride containing Tween 80, was injected into the tail vein of each mouse of a group consisting of 5 animals at a dose of 0.1-0.2 ml. The anti-tumour activity of the test sample was determined as follows:
7 days after the implantation, the major axis (a) and the minor axis (b) of the tumour were measured to calculate a value of "a×b^2 /2" which corresponds to the volume of the tumour. The anti-tumour activity was expressed by T/C viz. the ratio of the volume of the tumours (T) of the group of animals administered with the test compound to the corresponding volume of tumours (C) of the untreated animals.
(2) Determination of ED50 :
The term ED50 denotes the administered amount needed for reducing the volume of Sarcoma 180 solid tumours in the animals by 50% on the basis of the corresponding volume of Sarcoma 180 solid tumours in the untreated animals. On graph paper, the value T/C was indicated by an arithmetic scale on the longitudinal axis and the administered amount of test compound was indicated by a logarithmic scale on the lateral axis. A straight line indicating the relationship between the dose and T/C was determined by the least squares method from which a dose corresponding to T/C of 0.5 was obtained.

The nature of the next data set: Acute toxicity. The following applies: mouse, in vivo; ddy mice, single intravenous administration, observed for 14 days, Behrens Korber's method. The protocol:
Each animal of the test group consisting of 5 ddy mice was once administered intravenously with a test compound. […] The LD50 was determined by the Behrens Korber's method.

Converted amounts (≈) assume the structure as drawn.

In the case of `CO[C@@]12[C@H](COC(N)=O)C3=C(C(OC(C)=O)=C(C)C4(OCCO4)C3=O)N1C[C@@H]1N[C@@H]12` [Compound 2], the MIC in data set [1] is 1.3 µg/mL (≈ 3.08 µM); in data set [2], 0.63 µg/mL (≈ 1.49 µM); in data set [3], 1.3 µg/mL (≈ 3.08 µM); in data set [4], 0.16 µg/mL (≈ 0.38 µM). Moreover, the IC50 in the data set with HeLa S3 cells is 0.007 µg/mL (≈ 0.0166 µM).

`CC(=O)OC1=C(C)C2(OCCO2)C(=O)C2=C1N1C[C@H]3[C@H](N3C)[C@]1(O)[C@H]2COC(N)=O` (some centres unmarked) [Compound 3]: the MIC in data set [1] was found to be 50 µg/mL (≈ 119 µM); in data set [2] it was 13 µg/mL (≈ 30.8 µM); in data set [3], 13 µg/mL (≈ 30.8 µM); in data set [4] it was 6.3 µg/mL (≈ 14.9 µM). Moreover, the median effective dose (ED50) in the data set with Sarcoma 180 solid tumour amounted to 9.9 mg/kg. The LD50 at 336 h in the data set “Acute toxicity” was determined as 11.3 mg/kg.

`CO[C@@]12[C@H](COC(N)=O)C3=C(C(OC(=O)c4ccccc4)=C(C)C4(OCCO4)C3=O)N1C[C@@H]1N[C@@H]12` [Compound 5]: the MIC amounted to 1.3 µg/mL (≈ 2.69 µM) in data set [1], 0.31 µg/mL (≈ 0.641 µM) in data set [2], 0.63 µg/mL (≈ 1.3 µM) in data set [3] and 1.3 µg/mL (≈ 2.69 µM) in data set [4]. Moreover, the IC50 in the data set on HeLa S3 cells was 0.013 µg/mL (≈ 0.0269 µM).

With `CCCCCCCCCCCC(=O)OC1=C(C)C2(OCCO2)C(=O)C2=C1N1C[C@@H]3N[C@@H]3[C@]1(OC)[C@@H]2COC(N)=O` [Compound 6], the MIC is 2.5 µg/mL (≈ 4.45 µM) in data set [1], 0.63 µg/mL (≈ 1.12 µM) in data set [2], 2.5 µg/mL (≈ 4.45 µM) in data set [3] and 5 µg/mL (≈ 8.9 µM) in data set [4]. In the data set on HeLa S3 cells, the IC50 was 0.0019 µg/mL (≈ 0.00338 µM). The ED50 in the data set with Sarcoma 180 solid tumour came out at 1.2 mg/kg. For the same molecule, in “Acute toxicity”, the LD50 at 336 h amounted to 3 mg/kg.

On to `COC1=C(C)C2(OCCO2)C(=O)C2=C1N1C[C@@H]3N[C@@H]3[C@]1(OC)[C@@H]2COC(N)=O` [Compound 7], for which the MIC in data set [1] was found to be 10 µg/mL (≈ 25.4 µM); in data set [2], 5 µg/mL (≈ 12.7 µM); in data set [3] it was 10 µg/mL (≈ 25.4 µM); in data set [4] it was 2.5 µg/mL (≈ 6.35 µM). For the same molecule, the IC50 with HeLa S3 cells came to 0.085 µg/mL (≈ 0.216 µM).

On to `CCCCC/C=C\C/C=C\CCCCCCCC(=O)OC1=C(C)C2(OCCO2)C(=O)C2=C1N1C[C@@H]3N[C@@H]3[C@]1(OC)[C@@H]2COC(N)=O` [Compound 10], for which the IC50 in the data set on HeLa S3 cells is 0.0026 µg/mL (≈ 0.00405 µM). Also, the ED50 in the data set on Sarcoma 180 solid tumour amounted to 1.9 mg/kg. The molecule also yielded an LD50 at 336 h in “Acute toxicity” of 4.2 mg/kg.

Consider `CCCCCCCC(=O)OC1=C(C)C2(OCCO2)C(=O)C2=C1N1C[C@@H]3N[C@@H]3[C@]1(OC)[C@@H]2COC(N)=O` [Compound 11], for which the IC50 in the data set on HeLa S3 cells amounted to 0.01 µg/mL (≈ 0.0198 µM). In addition, the ED50 with Sarcoma 180 solid tumour was 0.77 mg/kg. For the same molecule, in “Acute toxicity”, the LD50 at 336 h came out at 3.1 mg/kg.

Regarding `CO[C@@]12[C@H](COC(N)=O)C3=C(C(OC(=O)C(C)(C)C)=C(C)C4(OCCO4)C3=O)N1C[C@@H]1N[C@@H]12` [Compound 12], the IC50 in the data set with HeLa S3 cells stood at 0.53 µg/mL (≈ 1.14 µM).
